Measurements as given in PubChem BioAssay AID226 (DTP/NCI, 2004).
Where “and” joins values, the source holds several entries; their conditions need not be identical. Equal entries are not always repeated. Inconclusive results and toxic doses are left out.

Test system: B6C3F1 mice, intracerebral ependymoblastoma, median survival T/C
Assay: NCI In Vivo Anticancer Drug Screen. Data for tumor model Ependymoblastoma (intracerebral) in B6C3F1 mice
Conditions: endpoint: median survival time, higher = longer survival
Experimental: The antitumor activity of compounds was measured in mice bearing transplantable tumors. Survival or tumor size were measured and the results are expressed as the measurement made in the treated group (T) divided by the measurement made in the vehicle treated control group (C). The tumor model used in this assay is Ependymoblastoma (intracerebral) in B6C3F1 mice

[1] = dose: 16.0 mg/kg/injection, schedule: Q01DX005 (ip), vehicle: saline with Tween-80
[2] = dose: 32.0 mg/kg/injection, schedule: Q01DX005 (ip), vehicle: saline with Tween-80
[3] = dose: 64.0 mg/kg/injection, schedule: Q01DX005 (ip), vehicle: saline with Tween-80
[4] = dose: 8.0 mg/kg/injection, schedule: Q01DX005 (ip), vehicle: Klucel (hydroxypropylcellulose) (HPC)
[5] = dose: 16.0 mg/kg/injection, schedule: Q01DX005 (ip), vehicle: Klucel (hydroxypropylcellulose) (HPC)
[6] = dose: 32.0 mg/kg/injection, schedule: Q01DX005 (ip), vehicle: Klucel (hydroxypropylcellulose) (HPC)
[7] = dose: 64.0 mg/kg/injection, schedule: Q01DX005 (ip), vehicle: Klucel (hydroxypropylcellulose) (HPC)
[8] = dose: 128.0 mg/kg/injection, schedule: Q01DX005 (ip), vehicle: Klucel (hydroxypropylcellulose) (HPC)
[9] = dose: 256.0 mg/kg/injection, schedule: Q01DX005 (ip), vehicle: Klucel (hydroxypropylcellulose) (HPC)
[10] = dose: 512.0 mg/kg/injection, schedule: Q01DX005 (ip), vehicle: Klucel (hydroxypropylcellulose) (HPC)
[11] = dose: 0.5 mg/kg/injection, schedule: Q01DX005 (ip), vehicle: saline
[12] = dose: 1.0 mg/kg/injection, schedule: Q01DX005 (ip), vehicle: saline
[13] = dose: 4.0 mg/kg/injection, schedule: Q01DX005 (ip), vehicle: saline
[14] = dose: 8.0 mg/kg/injection, schedule: Q01DX005 (ip), vehicle: saline
[15] = dose: 16.0 mg/kg/injection, schedule: Q01DX005 (ip), vehicle: saline
[16] = dose: 32.0 mg/kg/injection, schedule: Q01DX005 (ip), vehicle: saline
[17] = dose: 37.5 mg/kg/injection, schedule: Q01DX005 (ip), vehicle: saline
[18] = dose: 75.0 mg/kg/injection, schedule: Q01DX005 (ip), vehicle: saline
[19] = dose: 150.0 mg/kg/injection, schedule: Q01DX005 (ip), vehicle: saline

In the case of `CC/C(=C(/CC)c1ccc(O)cc1)c1ccc(O)cc1`, the T/C [1] is reported as 102 % of control, the T/C [2] is reported as 102 % of control and the T/C [3] is reported as 109 % of control. The T/C (dose: 128.0 mg/kg/injection, schedule: Q01DX005 (ip), vehicle: saline with Tween-80) was 104 % of control.
With `CC1(C)OCC(CO)(Nc2nc(N3CC3)nc(N3CC3)n2)CO1` the T/C (dose: 1.25 mg/kg/injection, schedule: Q01DX005 (ip), vehicle: suspension in saline) was 105 % of control, the T/C (dose: 2.5 mg/kg/injection, schedule: Q01DX005 (ip), vehicle: suspension in saline) was 103 % of control and the T/C (dose: 5.0 mg/kg/injection, schedule: Q01DX005 (ip), vehicle: suspension in saline) was 113 % of control.
`CC(C)(C)N1CC1CNC(=O)C(=O)NCC1CN1C(C)(C)C` (stereo not given) was tested, and the T/C (dose: 1.5 mg/kg/injection, schedule: Q01DX005 (ip), vehicle: saline with Tween-80) was 96 % of control, the T/C (dose: 3.0 mg/kg/injection, schedule: Q01DX005 (ip), vehicle: saline with Tween-80) was 102 % of control and 112 % of control and the T/C (dose: 3.12 mg/kg/injection, schedule: Q01DX005 (ip), vehicle: saline with Tween-80) was 112 % of control. For the same molecule, the T/C (dose: 6.0 mg/kg/injection, schedule: Q01DX005 (ip), vehicle: saline with Tween-80) was 102 % of control and 114 % of control, the T/C (dose: 6.25 mg/kg/injection, schedule: Q01DX005 (ip), vehicle: saline with Tween-80) was 116 % of control and the T/C (dose: 12.0 mg/kg/injection, schedule: Q01DX005 (ip), vehicle: saline with Tween-80) was 115 % of control and 119 % of control.
`C#C[C@]1(O)CC[C@H]2[C@@H]3CCc4cc(O)ccc4[C@H]3CC[C@@]21C` was tested, and the T/C [4] was 97 % of control and 103 % of control, the T/C [5] was 98 % of control and 109 % of control and the T/C [6] was 100 % of control and 106 % of control. For the same molecule, the T/C [7] was 97 % of control and 119 % of control, the T/C [8] was 104 % of control and 107 % of control and the T/C [9] was 104 % of control and 124 % of control. For the same molecule, the T/C [10] was 109 % of control and 111 % of control.
In the case of `O=c1[nH]cc(F)c(=O)[nH]1`, the T/C [11] is reported as 108 % of control, the T/C [12] is reported as 108 % of control and the T/C (dose: 2.0 mg/kg/injection, schedule: Q01DX005 (ip), vehicle: saline) is reported as 111 % of control. The T/C [13] was 113 % of control, the T/C [14] was 105 % of control and the T/C [15] was 105 % of control. For the same molecule, the T/C [16] was 120 % of control.
In the case of `O=C1C(NCC(O)CO)=C(N2CC2)C(=O)C(NCC(O)CO)=C1N1CC1` (stereo not given), the T/C [11] is reported as 117 % of control and the T/C [12] is reported as 116 % of control.
In the case of `CCC1=C(c2ccc(OC)cc2)CCC(C(=O)O)C1C` (stereo not given), the T/C [13] is reported as 102 % of control, the T/C [14] is reported as 102 % of control and the T/C [15] is reported as 102 % of control. The T/C [16] was 103 % of control.
With `COc1ccc2c(c1OC(C)=O)-c1cc(OC(C)=O)cc3c1C(C2)N(C(=O)CBr)CC3` (stereo not given) the T/C (dose: 25.0 mg/kg/injection, schedule: Q01DX005 (ip), vehicle: saline) was 96 % of control and the T/C (dose: 50.0 mg/kg/injection, schedule: Q01DX005 (ip), vehicle: saline) was 91 % of control.
With `O=C1C(=O)c2ccccc2C(O)=C1CC=C(Cl)Cl` the T/C (dose: 10.0 mg/kg/injection, schedule: Q01DX005 (ip), vehicle: Klucel (hydroxypropylcellulose) (HPC)) was 100 % of control and 103 % of control, the T/C (dose: 20.0 mg/kg/injection, schedule: Q01DX005 (ip), vehicle: Klucel (hydroxypropylcellulose) (HPC)) was 96 % of control and 98 % of control and the T/C (dose: 40.0 mg/kg/injection, schedule: Q01DX005 (ip), vehicle: Klucel (hydroxypropylcellulose) (HPC)) was 103 % of control and 89 % of control. For the same molecule, the T/C (dose: 80.0 mg/kg/injection, schedule: Q01DX005 (ip), vehicle: Klucel (hydroxypropylcellulose) (HPC)) was 96 % of control and 103 % of control.
`NC(=O)c1csc(C2OC(CO)C(O)C2O)n1` (stereo not given) was tested, and the T/C (dose: 9.38 mg/kg/injection, schedule: Q01DX009 (ip), vehicle: saline) was 96 % of control, the T/C (dose: 18.8 mg/kg/injection, schedule: Q01DX009 (ip), vehicle: saline) was 107 % of control and the T/C [17] was 93 % of control and 110 % of control. The T/C (dose: 37.5 mg/kg/injection, schedule: Q01DX009 (ip), vehicle: saline) was 99 % of control and 110 % of control, the T/C [18] was 101 % of control and 107 % of control and the T/C (dose: 75.0 mg/kg/injection, schedule: Q01DX009 (ip), vehicle: saline) was 112 % of control and 121 % of control. The T/C [19] was 113 % of control and 116 % of control, the T/C (dose: 150.0 mg/kg/injection, schedule: Q01DX009 (ip), vehicle: saline) was 110 % of control and 119 % of control and the T/C (dose: 300.0 mg/kg/injection, schedule: Q01DX005 (ip), vehicle: saline) was 108 % of control and 114 % of control. For the same molecule, the T/C (dose: 300.0 mg/kg/injection, schedule: Q01DX009 (ip), vehicle: saline) was 114 % of control, the T/C (dose: 600.0 mg/kg/injection, schedule: Q01DX005 (ip), vehicle: saline) was 101 % of control and 114 % of control and the T/C (dose: 600.0 mg/kg/injection, schedule: Q01DX009 (ip), vehicle: saline) was 123 % of control.
For `CC(=O)Nc1ccn(C2OC(COC(C)=O)C(OC(C)=O)C2OC(C)=O)c(=O)n1` (stereo not given), the T/C (dose: 150.0 mg/kg/injection, schedule: Q01DX005 (ip), vehicle: saline with Tween-80) was 105 % of control, the T/C (dose: 300.0 mg/kg/injection, schedule: Q01DX005 (ip), vehicle: saline with Tween-80) was 112 % of control and the T/C (dose: 600.0 mg/kg/injection, schedule: Q01DX005 (ip), vehicle: saline with Tween-80) was 107 % of control. For the same molecule, the T/C (dose: 1200.0 mg/kg/injection, schedule: Q01DX005 (ip), vehicle: saline with Tween-80) was 120 % of control.
In the case of `N=c1ccn2c(n1)OC1C(O)C(CO)OC12` (stereo not given), the T/C [17] is reported as 118 % of control, the T/C [18] is reported as 104 % of control and the T/C (dose: 100.0 mg/kg/injection, schedule: Q01DX001 (ip), vehicle: saline) is reported as 92 % of control and 94 % of control and 109 % of control. For the same molecule, the T/C [19] was 115 % of control, the T/C (dose: 200.0 mg/kg/injection, schedule: Q01DX001 (ip), vehicle: saline) was 100 % of control (2×) and 101 % of control and the T/C (dose: 400.0 mg/kg/injection, schedule: Q01DX001 (ip), vehicle: saline) was 95 % of control and 98 % of control and 112 % of control. For the same molecule, the T/C (dose: 800.0 mg/kg/injection, schedule: Q01DX001 (ip), vehicle: saline) was 106 % of control and 112 % of control and 123 % of control and the T/C (dose: 1600.0 mg/kg/injection, schedule: Q01DX001 (ip), vehicle: saline) was 99 % of control and 105 % of control and 115 % of control.
In the case of `C[C@]1(O)CC[C@H]2[C@@H]3CCC4=CC(=O)CC[C@]4(C)[C@@]3(F)[C@@H](O)C[C@@]21C`, the T/C [4] is reported as 91 % of control and 102 % of control, the T/C [5] is reported as 96 % of control and 102 % of control and the T/C [6] is reported as 93 % of control. For the same molecule, the T/C [7] was 97 % of control and 98 % of control, the T/C [8] was 92 % of control and 104 % of control and the T/C [9] was 93 % of control and 97 % of control. For the same molecule, the T/C [10] was 91 % of control.
`O=NN(CCCl)C(=O)NC1[C@H](O)CCC[C@@H]1O` (stereo not given in full) was tested, and the T/C (dose: 2.59 mg/kg/injection, schedule: Q01DX005 (ip), vehicle: Klucel (hydroxypropylcellulose) (HPC)) was 236 % of control, the T/C (dose: 4.32 mg/kg/injection, schedule: Q01DX001 (ip), vehicle: saline) was 115 % of control and the T/C (dose: 4.32 mg/kg/injection, schedule: Q01DX005 (ip), vehicle: Klucel (hydroxypropylcellulose) (HPC)) was 357 % of control. The T/C (dose: 4.32 mg/kg/injection, schedule: Q01DX005 (ip), vehicle: saline) was 281 % of control, the T/C (dose: 7.2 mg/kg/injection, schedule: Q01DX005 (ip), vehicle: Klucel (hydroxypropylcellulose) (HPC)) was 357 % of control and the T/C (dose: 7.2 mg/kg/injection, schedule: Q01DX005 (ip), vehicle: saline) was 281 % of control. For the same molecule, the T/C (dose: 12.0 mg/kg/injection, schedule: Q01DX001 (ip), vehicle: saline) was 163 % of control, the T/C (dose: 12.0 mg/kg/injection, schedule: Q01DX005 (ip), vehicle: Klucel (hydroxypropylcellulose) (HPC)) was 88 % of control and the T/C (dose: 20.0 mg/kg/injection, schedule: Q01DX001 (ip), vehicle: saline) was 218 % of control.
With `c1ccc([C@H]2CN3CCSC3=N2)cc1` the T/C (dose: 10.0 mg/kg/injection, schedule: Q01DX005 (ip), vehicle: saline) was 114 % of control, the T/C (dose: 20.0 mg/kg/injection, schedule: Q01DX005 (ip), vehicle: saline) was 107 % of control and the T/C (dose: 40.0 mg/kg/injection, schedule: Q01DX005 (ip), vehicle: saline) was 110 % of control.
In the case of `Nc1ncnc2nc[nH]c12`, the T/C (dose: 4.0 mg/kg/injection, schedule: Q01DX005 (ip), vehicle: saline with Tween-80) is reported as 106 % of control and 113 % of control, the T/C (dose: 8.0 mg/kg/injection, schedule: Q01DX005 (ip), vehicle: saline with Tween-80) is reported as 100 % of control and 114 % of control and the T/C [1] is reported as 107 % of control and 118 % of control. The T/C [2] was 101 % of control and 102 % of control, the T/C [7] was 108 % of control and the T/C [3] was 100 % of control and 117 % of control. For the same molecule, the T/C [8] was 107 % of control and the T/C [9] was 96 % of control.
